Results as given in patent publication EP2238984A1, “Caspasin inhibitor peptides” (INSTITUT NATIONAL DE LA RECHERCHE AGRONOMIQUE (INRA), priority 2009, dated 2010).

Test system: LNCaP human prostate cancer cells
Experiment: BrdU cell proliferation assay
Type: cell-based
Conditions: BrdU incorporation; for cell proliferation: LNCaP cells incubated with peptide, absorbance at 450 nm, at a concentration as lowest as 1 µM (Figure 1)
Description: Peptides of sequences SEQ ID NO: 48 and SEQ ID NO: 49 were used in the experiments. They were resuspended in dimethylsulfoxide (DMSO) to obtain a concentration of about 50 mM. They were then diluted in fetal calf serum (FCS) before being added to culture cells at the indicated concentrations.
FGC clone LNCaP human prostate cancer cells, commercialized by ATCC-LGC (Molsheim, France; ATCC Number: CRL-1740) were used.
The cells were incubated for 48 hours with the caspasin inhibitor peptides at the following concentrations: 0.1, 0.3, 0.9, 3, 10, 20, 30, 60 and 90 µM.
Cell proliferation was then assessed by quantifying the DNA precursor bromo-deoxyuridine (BrdU). This quantification was performed using the 5'-Bromo-2'-deoxy-uridine Labeling and Detection Kit (Roche) according to the manufacturer's instructions.
LNCaP prostatic cells were incubated for 24 hours in a 96-well plastic plate containing 200 µl RPMI 1640 medium complemented with 1.5 g/I sodium carbonate, 4.5 g/I glucose, 10 mM HEPES, 1.0 mM sodium pyruvate, 10% foetal bovine serum (FBS) and antibiotics. Peptides were pre-incubated for 1 h30 in 20 µl of FBS at 37°C, then added to 180 µl of RPMI. Medium from plates was released and the medium containing peptides was added to the cells. The cells were then cultured for another 24 hours. BrdU incorporation was then determined by measuring the absorbance at 450 nm on an ELISA plate reader.

Substance: SEQ ID NO: 48: caspasin inhibitor peptide originating from a caspasin reactive centre loop; sequence only in the sequence listing (ATGIGI)
- cell proliferation: drastic decrease of the cell proliferation

Substance: SEQ ID NO: 49: caspasin inhibitor peptide originating from a caspasin reactive centre loop; sequence only in the sequence listing (FLMMITNKA)
- cell proliferation: drastic decrease of the cell proliferation
- concentration of peptide at which a plateau was reached (cell proliferation) (LNCaP cells, concentrations tested 0.1-90 µM (Figure 1)): 3 µM
